Source: PMC5342196 (PLoS ONE, 2017)

Test system: Lac161_ORF7
Assay: glucose release, glucose oxidase/peroxidase assay
Type: biochemical, metagenome: corn field soil
Settings: 100 mM MES pH 6.0, 50 °C (methods print Lac161_ORF3 for this temperature), 30 min

- Km: 1800 µM
SMILES: OC[C@H]1O[C@@H](O[C@H]2[C@H](O)[C@@H](O)C(O)O[C@@H]2CO)[C@H](O)[C@@H](O)[C@H]1O (stereo partly shown) [lactose]
